Measurements reported in article PMC2860105 (Science (New York, N.Y.), 2010).

Tests used:
Vps34 = experiment: in vitro inhibition of Vps34; format: biochemical
p110γ = p110γ (Homo sapiens, UniProt P48736); experiment: in vitro inhibition of class I PI3K p110γ; format: biochemical
p110γ, sequence (P48736 whole entry, species assumed): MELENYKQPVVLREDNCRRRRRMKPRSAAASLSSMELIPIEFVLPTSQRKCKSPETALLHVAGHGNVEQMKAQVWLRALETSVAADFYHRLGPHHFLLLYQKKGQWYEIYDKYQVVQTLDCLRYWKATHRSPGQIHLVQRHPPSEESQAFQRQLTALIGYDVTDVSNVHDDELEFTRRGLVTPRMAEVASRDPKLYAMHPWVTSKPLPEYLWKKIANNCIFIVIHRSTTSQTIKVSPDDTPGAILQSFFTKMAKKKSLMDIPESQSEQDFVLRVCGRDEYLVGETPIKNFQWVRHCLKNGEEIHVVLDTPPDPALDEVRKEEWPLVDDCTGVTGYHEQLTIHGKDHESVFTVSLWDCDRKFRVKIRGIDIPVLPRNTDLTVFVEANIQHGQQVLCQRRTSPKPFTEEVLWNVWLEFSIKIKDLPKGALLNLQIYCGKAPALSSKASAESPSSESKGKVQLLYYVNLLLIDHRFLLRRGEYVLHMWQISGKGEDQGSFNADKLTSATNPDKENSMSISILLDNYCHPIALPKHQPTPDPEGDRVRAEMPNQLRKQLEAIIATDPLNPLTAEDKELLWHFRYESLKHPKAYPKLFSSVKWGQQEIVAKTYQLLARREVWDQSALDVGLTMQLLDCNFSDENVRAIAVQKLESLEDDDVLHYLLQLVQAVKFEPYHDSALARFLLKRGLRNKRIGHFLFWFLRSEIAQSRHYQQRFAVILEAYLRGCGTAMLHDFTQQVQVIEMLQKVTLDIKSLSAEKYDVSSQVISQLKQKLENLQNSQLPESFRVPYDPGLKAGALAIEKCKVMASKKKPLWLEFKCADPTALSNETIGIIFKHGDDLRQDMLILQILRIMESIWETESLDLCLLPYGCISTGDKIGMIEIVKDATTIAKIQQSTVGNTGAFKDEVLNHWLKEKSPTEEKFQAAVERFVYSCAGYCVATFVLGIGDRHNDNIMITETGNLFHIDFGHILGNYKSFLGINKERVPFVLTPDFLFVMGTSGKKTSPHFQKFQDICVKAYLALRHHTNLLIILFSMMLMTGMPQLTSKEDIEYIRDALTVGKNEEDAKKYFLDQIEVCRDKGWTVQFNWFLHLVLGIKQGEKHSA

CC(=O)Nc1nc(C)c(-c2ccc(Cl)c(S(=O)(=O)NCCO)c2)s1 [PIK-93, reference compound]
IC50 of PIK-93 relative to PIK-90 (in words) (Vps34; Fig. S8): lower IC50

Cn1cnc(N)c2ncnc1-2 [3-MA, 3-methyladenine, reference compound]
specificity for Vps34 versus other PI3Ks (in words) (Vps34; in vitro assays, Fig. S8, Fig. 4G): preference for Vps34

COc1ccc(-c2sc(NC(C)=O)nc2C)cc1S(=O)(=O)NCCO [PT21]
increase in IC50 for PI3Kγ (p110γ) compared to PIK93 (p110γ; ratio of IC50 values vs PIK93): > 10 fold | IC50 (p110γ; read-out: IC50 for the most potently inhibited Class I PI3K (p110γ), in vitro, Fig. S9): 61 nM | change in IC50 relative to PIK-93 (in words) (Vps34; analogues of PIK-93, Fig. S9): little change in IC50 | IC50 (Vps34; read-out: IC50 for Vps34, in vitro, Fig. S9): 88 nM
